Where two headings read alike, the source gives them in different places.
Tests used:
PD-1/PD-L1 = PD-1/PD-L1 (Homo sapiens (Human), UniProt Q9NZQ7); assay: PD-1/PD-L1 biochemical protein-protein interaction assay (ALPHA); assay type: binding; conditions: read-out: IC50 PD-L1-PD1
PD-L1 = PD-L1 (Homo sapiens (Human), UniProt Q9NZQ7); assay: PD-L1/PD-L1 dimerization biochemical protein-protein interaction assay (ALPHA); assay type: binding; conditions: read-out: AC50 PDL1 Dimer 1 nM
[1] = 0.3 nM His tagged PD-L1, 2.5 nM biotinylated Fc-PD-1, readings of 0.064 nM are equal to or less than 0.064 nM
[2] = 0.5 nM His tagged PD-L1 and 0.5 nM FLAG tagged PD-L1, Table 4A
[3] = 0.3 nM His tagged PD-L1, 2.5 nM biotinylated Fc-PD-1, Table 3B
[4] = 0.5 nM His tagged PD-L1 and 0.5 nM FLAG tagged PD-L1, Table 4B

Sequence of PD-1/PD-L1 (Q9NZQ7 19-238): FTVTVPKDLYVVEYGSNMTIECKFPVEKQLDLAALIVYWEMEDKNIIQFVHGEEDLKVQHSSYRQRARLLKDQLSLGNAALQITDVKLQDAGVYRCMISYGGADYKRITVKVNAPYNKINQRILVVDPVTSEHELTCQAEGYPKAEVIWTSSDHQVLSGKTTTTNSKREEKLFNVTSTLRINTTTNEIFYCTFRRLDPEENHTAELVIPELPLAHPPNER
Sequence of PD-L1 (Q9NZQ7 19-238): as above
Sequence of PD-L1 (Q9NZQ7 19-238): as above

Structure (SMILES) | IC50 (PD-1/PD-L1; [1]) [nM] | AC50 (PD-L1; [2]) [nM] | IC50 (PD-1/PD-L1; [3]) [nM] | AC50 (PD-L1; [4]) [nM]
COc1nc(-c2cccc(-c3cccc4c3CC[C@@H]4Nc3nc(OC)c(CN[C@H](C(=O)O)C4CC4)cc3C(F)(F)F)c2Cl)ccc1CN[C@H]1C[C@](C)(O)C1 [A-90] | ≤ 0.064 | 21.6 | – | –
COc1nc(O[C@H]2CCc3c(-c4cccc(-c5cc(F)c(CNC[C@@H]6CCC(=O)N6)c(OC)n5)c4Cl)cccc32)c(Cl)cc1CN1CC(C(=O)O)C1 [B-142] | – | – | 0.064 | 38.9
COc1nc(-c2cccc(-c3cccc4c3CC[C@@H]4Oc3nc(OC)c(CN4C[C@H](C(=O)O)[C@@H](C)C4)cc3Cl)c2Cl)ccc1CNC[C@@H]1CCC(=O)N1 [B-106] | – | – | 0.064 | 41.3
COc1nc(-c2cccc(-c3cccc4c3CC[C@@H]4Oc3nc(OCc4cc(Cl)cc(C#N)c4)c(CN4CC5(C(=O)O)CCC4CC5)cc3Cl)c2Cl)ccc1CNC[C@@H]1CCC(=O)N1 [B-31] | – | – | 0.085 | 32.3
COc1nc(-c2cccc(-c3cccc4c3CC[C@@H]4Oc3nc(OC)c(CN(C)CC(=O)O)cc3Cl)c2Cl)ccc1CNC[C@@H]1CCC(=O)N1 [B-173] | – | – | 0.064 | 9.94
COc1nc(O[C@H]2CCc3c(-c4cccc(-c5cnc(CNC[C@@H]6CCC(=O)N6)c(OC)n5)c4C)cccc32)c(Cl)cc1CN1CC2(C(=O)O)CCC1CC2 [B-80] | – | – | 0.064 | 46.9
COc1nc(-c2cccc(-c3cccc4c3CC[C@@H]4Nc3nc(OC)c(CN[C@@H](C)C(=O)O)nc3C(F)(F)F)c2Cl)ccc1CN1CC(C)(O)C1 [A-74] | ≤ 0.064 | 9.07 | – | –
COc1nc(O[C@H]2CCc3c(-c4cccc(-c5cnc(CNC[C@@H]6CCC(=O)N6)c(OC)n5)c4C#N)cccc32)c(Cl)cc1CN1CC[C@@H](C(=O)O)C1 [B-69] | – | – | 0.064 | 156
COc1cc(-c2cccc(-c3cccc4c3CC[C@@H]4Oc3nc(OC)c(CN4CC5(C(=O)O)CCC4CC5)cc3Cl)c2Cl)cc(F)c1CNC[C@@H]1CCC(=O)N1 [B-129] | – | – | 0.064 | 16.5
COc1cc(-c2cccc(-c3cccc4c3CC[C@@H]4Oc3nc(OC)c(CN4CC(C(=O)O)C4)cc3Cl)c2Cl)ccc1CNC[C@@H]1CCC(=O)N1 [B-42] | – | – | 0.064 | 12.5
COc1cc(-c2cccc(-c3cccc4c3CC[C@@H]4Oc3nc(OC)c(CNC4(C(=O)O)CC4)cc3Cl)c2Cl)cc(F)c1CNC[C@@H]1CCC(=O)N1 [B-128] | – | – | 0.064 | 13.5
COc1nc(-c2cccc(-c3cccc4c3CC[C@@H]4Nc3nc(OC)c(CN[C@@H](C)C(=O)O)nc3C(F)(F)F)c2Cl)ccc1CN1CC(O)C1 [A-72] | ≤ 0.064 | 13.4 | – | –
COc1nc(-c2cccc(-c3cccc4c3CC[C@@H]4Nc3nc(OC)c(CN[C@@H](C)C(=O)O)nc3C(F)(F)F)c2Cl)ccc1CNC[C@@H]1CC(O)C(=O)N1 (stereo partly drawn) [A-45] | ≤ 0.064 | 5.86 | – | –
COc1cc(O[C@H]2CCc3c(-c4cccc(-c5ccc(CNC[C@@H]6CCC(=O)N6)c(OC)n5)c4Cl)cccc32)c(Cl)cc1CN1CC[C@H](C(=O)O)C1 [B-167] | – | – | 0.064 | 51.6
COc1nc(-c2cccc(-c3cccc4c3CC[C@@H]4Oc3nc(OC)c(CN4CC5CC(C(=O)O)C4C5)cc3Cl)c2Cl)ccc1CNC[C@@H]1CCC(=O)N1 (stereo partly drawn) [B-184] | – | – | 0.064 | 19.8
CNC(=O)C1CN(Cc2cc(Cl)c(O[C@H]3CCc4c(-c5cccc(-c6ccc(CNC[C@@H]7CCC(=O)N7)c(OC)n6)c5Cl)cccc43)nc2OC)C1 [B-101] | – | – | 0.201 | 64.8
CC[C@H](NCc1nc(C(F)(F)F)c(N[C@H]2CCc3c(-c4cccc(-c5ccc(CNC[C@@H]6CCC(=O)N6)c(OC)n5)c4Cl)cccc32)nc1OC)C(=O)O [A-104] | ≤ 0.064 | 16.6 | – | –
COc1nc(-c2cccc(-c3cccc4c3CC[C@@H]4Oc3nc(OC)c(CNCC(=O)O)cc3C(F)(F)F)c2Cl)ccc1CN[C@]1(C)C[C@@](C)(O)C1 [B-205] | – | – | 0.064 | 7.55
COc1nc(O[C@H]2CCc3c(-c4cccc(-c5cc(C)c(CN6C[C@@H]7C[C@]7(C(=O)O)C6)c(OC)n5)c4Cl)cccc32)c(Cl)cc1CNC[C@@H]1CCC(=O)N1 [B-132] | – | – | 0.266 | 301
COc1cc(O[C@H]2CCc3c(-c4cccc(-c5ccc(CNC[C@@H]6CCC(=O)N6)c(OC)n5)c4Cl)cccc32)c(C(F)(F)F)cc1CNC[C@@H](O)CC(=O)O [B-222] | – | – | 0.064 | 13.5
COc1nc(-c2cccc(-c3cccc4c3CC[C@@H]4Oc3nc(OC)c(CN4CC[C@@H](C(=O)O)C4)nc3Br)c2Cl)cnc1CNC[C@@H]1CCC(=O)N1 [B-37] | – | – | 0.064 | 28
COc1nc(-c2cccc(-c3cccc4c3CC[C@@H]4Nc3nc(OC)c(CN4CCCC[C@]4(C)C(=O)O)cc3C(F)(F)F)c2Cl)ccc1CN1CC(C)(O)C1 [A-51] | ≤ 0.064 | 106 | – | –
COc1cc(O[C@H]2CCc3c(-c4cccc(-c5ccc(CNC[C@@H]6CCC(=O)N6)c(OC)n5)c4Cl)cccc32)c(C(F)(F)F)cc1CNC(C)(C)C(=O)O [B-219] | – | – | 0.064 | 2.56

Structure (SMILES) | IC50 (PD-1/PD-L1; [1]) [nM] | AC50 (PD-L1; [2]) [nM] | IC50 (PD-1/PD-L1; [3]) [nM] | AC50 (PD-L1; [4]) [nM]
COc1nc(-c2cccc(-c3cccc4c3CC[C@@H]4Oc3nc(OC)c(CNC45CC(C(=O)O)(C4)C5)cc3Cl)c2Cl)ccc1CNC[C@@H]1CCC(=O)N1 [B-20] | – | – | 0.064 | 33.7
COc1nc(-c2cccc(-c3cccc4c3CC[C@@H]4Nc3nc(OC)c(CN[C@@H](C)C(=O)O)nc3C(F)(F)F)c2Cl)ccc1CNC[C@@H]1CCC(=O)N1 [A-106] | ≤ 0.064 | 5.04 | – | –
CNC(=O)C1CCN(Cc2ccc(-c3cccc(-c4cccc5c4CC[C@@H]5Oc4nc(OC)c(CN5CCC(C(=O)NC)C5)cc4Cl)c3Cl)nc2OC)C1 (stereo partly drawn) [B-87] | – | – | 0.064 | 90.7
COc1nc(-c2cccc(-c3cccc4c3CC[C@@H]4Nc3nc(OC)c(CN)nc3C(F)(F)F)c2Cl)ccc1CNC[C@@H]1CCC(=O)N1 [A-17] | 0.077 | 13.9 | – | –
COc1nc(-c2cccc(-c3cccc4c3CC[C@@H]4Nc3nc(OC)c(CN[C@@H](C)C(=O)O)cc3C(F)(F)F)c2Cl)ccc1CN1CC(C)(O)C1 [A-63] | ≤ 0.064 | 34.4 | – | –
COc1nc(-c2cccc(-c3cccc4c3CC[C@@H]4Oc3nc(OC)c(CN4C[C@@H]5CCC[C@]5(C(=O)O)C4)cc3Cl)c2Cl)ccc1CN1CC(C)(O)C1 [B-83] | – | – | 0.064 | 211
COc1nc(-c2cccc(-c3cccc4c3CC[C@@H]4Oc3nc(OC)c(CN[C@@H](C)C(=O)O)cc3C)c2Cl)ccc1CNC[C@@H]1CCC(=O)N1 [B-241] | – | – | 0.064 | 7.58
COc1nc(-c2cccc(-c3cccc4c3CC[C@@H]4Oc3nc(OC)c(CNCC(=O)O)cc3C(F)(F)F)c2Cl)ccc1CNC[C@@H]1CCC(=O)N1 [B-272] | – | – | 0.064 | 2.26
COc1nc(-c2cccc(-c3cccc4c3CC[C@@H]4Oc3nc(OC)c(CN4CC[C@@H](C(=O)O)C4)nc3C)c2Cl)ccc1CNC[C@@H]1CCC(=O)N1 [B-150] | – | – | 0.064 | 65.1
COc1nc(-c2cccc(-c3cccc4c3CC[C@@H]4Nc3nc(OC)c(CN(C)CC(=O)O)nc3C(F)(F)F)c2Cl)ccc1CNC[C@@H]1CCC(=O)N1 [A-34] | ≤ 0.064 | 8.26 | – | –
COc1nc(-c2cccc(-c3cccc4c3CC[C@@H]4Nc3nc(OC)c(CNCC(=O)O)cc3C(F)(F)F)c2Cl)ccc1CNC[C@@H]1CCC(=O)N1 [A-65] | ≤ 0.064 | 14.7 | – | –
COc1nc(-c2cccc(-c3cccc4c3CC[C@@H]4Nc3nc(OC)c(CN[C@@H](C)C(=O)O)cc3C(F)(F)F)c2Cl)ccc1CNC[C@H]1C[C@](C)(O)C1 [A-83] | ≤ 0.064 | 23.6 | – | –
COc1nc(O[C@H]2CCc3c(-c4cccc(-c5ccc(CNC[C@@H]6CCC(=O)N6)c(OCC#N)n5)c4Cl)cccc32)c(Cl)cc1CNC1(C(=O)O)CC1 [B-14] | – | – | 0.064 | 15.7
COc1nc(-c2cccc(-c3cccc4c3CC[C@@H]4Oc3nc(OC)c(CNC[C@@H]4CCC(=O)N4)nc3Cl)c2Cl)ccc1CNC[C@@H]1CCC(=O)N1 [B-155] | – | – | 0.22 | 102
COc1nc(-c2cccc(-c3cccc4c3CC[C@@H]4Oc3nc(OC)c(CN4CC5(C(=O)O)CCC4CC5)cc3Cl)c2C)ccc1CNC[C@@H]1CCC(=O)N1 [B-77] | – | – | 0.064 | 60.4
COc1nc(-c2cccc(-c3cccc4c3CC[C@@H]4Oc3nc(OC)c(CN4CC(C(=O)O)C4)cc3Cl)c2C#N)ccc1CNC[C@@H]1CCC(=O)N1 [B-74] | – | – | 0.064 | 94.1
COc1nc(-c2cccc(-c3cccc4c3CC[C@@H]4Oc3nc(OC)c(CNCCC(=O)O)cc3C(F)(F)F)c2Cl)ccc1CNC[C@@H]1CCC(=O)N1 [B-267] | – | – | 0.064 | 7.26
COc1nc(-c2cccc(-c3cccc4c3CC[C@@H]4Oc3nc(OCc4cncc(Cl)c4)c(CNC4(C(=O)O)CC4)cc3Cl)c2Cl)ccc1CNC[C@@H]1CCC(=O)N1 [B-32] | – | – | 0.095 | 12.9
COc1nc(-c2cccc(-c3cccc4c3CC[C@@H]4Oc3nc(OC)c(CN4CCN(C)C(C(=O)O)C4)cc3Cl)c2Cl)ccc1CNC[C@@H]1CCC(=O)N1 (stereo partly drawn) [B-82] | – | – | 0.064 | 37.8
COc1nc(-c2cccc(-c3cccc4c3CC[C@@H]4Oc3nc(OC)c(CN4CC[C@H](C(=O)O)C4)cc3Cl)c2Cl)ccc1CNC[C@@H]1CCC(=O)N1 [B-114] | – | – | 0.064 | 20.7
COc1nc(-c2cccc(-c3cccc4c3CC[C@@H]4Nc3nc(OC)c(CN4C[C@@H]5CC[C@H]4[C@@H]5C(=O)O)nc3C(F)(F)F)c2Cl)ccc1CNC[C@@H]1CCC(=O)N1 [A-80] | ≤ 0.064 | 19.9 | – | –
COc1nc(-c2cccc(-c3cccc4c3CC[C@@H]4Oc3nc(OC)c(CN4CC5(C(=O)O)CCC4CC5)cc3C(F)(F)F)c2Cl)ccc1CNC[C@H]1C[C@](C)(O)C1 [B-209] | – | – | 0.064 | 11.7

From patent US10774071B2, “PD-1/PD-L1 inhibitors” (Gilead Sciences, Inc., priority 2018, dated 2020)
